The values that follow come from PMC11768771, “Identification of a New Pentafluorosulfanyl-Substituted Chalcone with Activity Against Hepatoma and Human Parasites” (Pharmaceuticals, 2025).

Entries after “also recorded” stand apart in the source; their conditions may differ. Read-outs that look alike come from different tables or passages of the source.

For one series, the system named is L. major promastigotes. Put plainly: Leishmania major testing assay, promastigotes. The series is classed as cell-based. The following applies: for SI (Promastigotes) selectivity index (macrophages/L. major): ratio macrophages IC50 / promastigotes IC50.
Series [1] deals with HuH-7. The series can be described thus: Antiproliferative activity, crystal violet assay. The format is cell-based. The settings on record: Homo sapiens, Huh-7, 48 h, mean ± SD.
Method: (§3) Human hepatocellular carcinoma cell lines HepG2 (ATCC number: HB-8065) and HuH-7 (JCRB number: JCRB0403) were cultured at Roswell Park Memorial Institute (RPMI) 1640 Medium (Gibco, Thermo Fisher Scientific, Waltham, MA, USA) supplemented with 10% fetal bovine serum, 2 mM L-glutamine (Corning, Glendale, CA, USA), 100 U/mL penicillin and 100 µg/mL streptomycin (Bio&SELL, Feucht, Germany) at 37 °C, 5% CO2 in a humidified atmosphere in an incubator.
(§4) Treatment-induced antiproliferative effects measured as a decrease in cell number were assessed by crystal violet (N-hexamethylpararosaniline from Sigma-Aldrich, Darmstadt, Germany) staining as described before [71, 88]. In brief, HepG2 and HuH-7 cells were seeded in 96-well plates and allowed to adhere to the bottom of the wells and grow for 72 h in an incubator (37 °C, 5% CO2, humidified atmosphere). Afterwards, the cells were treated with rising concentrations of the chalcones, sorafenib and 17-AAG. After 24 h, 48 h and 72 h, respectively, the cells were fixed using 1% glutaraldehyde and stained for 30 min with 0.1% crystal violet. The excess unbound dye was removed by rinsing with water for 30 min. Cells were then lysed by incubation with 0.2% Triton X-100 (Sigma-Aldrich, Darmstadt, Germany) overnight dissolving the bound dye. The extinction of crystal violet was measured at 570 nm using ELISA readers (Dynex Technologies, Denkendorf, Germany; GloMax® Discover Microplate Reader Promega, Madison, WI, USA). IC50 values are given as means ± SD of a minimum of three independent experiments performed in triplicates and more.
A further series has as its system murine macrophages. The series can be described thus: Macrophage cytotoxicity (MTT assay). The series is classed as cell-based. The settings on record: Mus musculus. On the technique in general: Tetrazolium dyes change colour on reduction, which living cells bring about.
For a further series, the system named is Vero monkey kidney cells. The series can be described thus: Vero cell cytotoxicity (MTT assay). The format is cell-based. The following applies: Primates.
The subject of series [2] is T. gondii tachyzoites (RH strain). Put plainly: Toxoplasma gondii testing assay. The series is classed as cell-based. The following applies: for IC50: Toxoplasma gondii, T. gondii parasites cultivated in Vero cells; for SI selectivity index (Vero/T. gondii): ratio Vero IC50 / T. gondii IC50.
Method: Cells of the Vero cell line (ATCC® CCL81™, Manassas, VA, USA) were used to cultivate T. gondii tachyzoites (RH strain, a gift from Dr. Saeed El-Ashram, State Key Laboratory for Agrobiotechnology, China Agricultural University, Beijing, China). Effects of test compounds on T. gondii growth were investigated as published previously and expressed as IC50 values, which were calculated from three independent experiments [63, 89].
In series [3] the test system is HepG2. The series can be described thus: Antiproliferative activity, crystal violet assay. The following applies: Homo sapiens, HepG2, 48 h, mean ± SD. The format is cell-based.
Method: as §3, §4
Another series has as its system L. major amastigotes. Put plainly: Leishmania major testing assay, amastigotes. The following applies: for IC50: Leishmania major; for SI (Amastigotes) selectivity index (macrophages/L. major): ratio macrophages IC50 / amastigotes IC50. The series is classed as cell-based.
The test system of series [4] is HepG2. The series can be described thus: Colony formation assay. The series is classed as cell-based, Human. The settings on record: HepG2, 14 days of growth under treatment.
Method: (§5) Long-term effects of drug treatment on proliferation and clonogenicity were assessed by colony formation assays. HCC cell lines were seeded at 1000 cells/well (HepG2) and 200 cells/well (HuH-7) in 6-well plates and allowed to adhere overnight. […] Untreated cells served as controls. After 14 d, the cells were washed with PBS, fixed with 4% formaldehyde for 1 h and stained with 0.5% crystal violet for 3 min. Excess crystal violet dye was removed by gently rinsing with water. Representative images were taken and stained colonies were counted. A colony was defined as a cell aggregate of 50 or more cells. n = 4 independent experiments were performed and significance was tested by one-way ANOVA assays.
Series [5] concerns HuH-7. The series can be described thus: Colony formation assay. The series is classed as cell-based, Human. The settings on record: HuH-7, 14 days of growth under treatment.
Method: as §5
The test system of another series is Hsp90 in HuH-7 cells. Put plainly: Western blot analysis of Hsp90 expression. The series is classed as cell-based, Human. The following applies: HuH-7, 24 h treatment. As for the experimental part:
(§1) Changes in the level of protein expression were assessed through Western blotting. HepG2 and HuH-7 cells were seeded at a density of 1 × 10^6 cells/well in 100 mm petri dishes and incubated until the desired confluency. Drugs were added at given concentrations for 24 h. Untreated cells served as controls. After washing with PBS, the cells were frozen at −20 °C. Subsequently, radioimmunoprecipitation assay (RIPA) buffer mixed with one cOmplete™ Mini Protease Inhibitor tablet/10 mL (Roche Diagnostics GmbH, Mannheim, Germany) was added to lyse the cells. Following these steps, the protein levels were analyzed using the Pierce™ BCA Protein Assay Kit (Thermo Fisher Scientific, Waltham, USA) and protein levels were normalized to ensure equal protein loading of 20 µg/lane. Laemmli buffer and β-mercaptoethanol were added to the probes following denaturation at 96 °C for 10 min. Proteins were separated using SDS–PAGE and electro-transferred to polyvinylidene difluoride (PVDF) membranes. Membranes were blocked in 5% non-fat dry milk in Tris-buffered saline with 0.1% Tween-20 and incubated with primary antibody overnight at 4 °C. […] Blots of n = 3 independent experiments were generated. β-Actin expression served as a loading control and calculated values were normalized to its expression.
In general terms: A western blot detects proteins with antibodies after separation by electrophoresis.

Another series concerns Hsp90 in HepG2 cells. The series can be described thus: Western blot analysis of Hsp90 expression. The settings on record: HepG2, 24 h treatment. The format is cell-based, Human. Here is the method:
as §1

Series [6] relates to HuH-7. The series can be described thus: Lactate dehydrogenase (LDH) assay, unspecific cytotoxicity. The series is classed as cell-based, Human. The settings on record: HuH-7, 1, 5 and 10 µM, 6 h and 24 h, vs untreated controls. Here is the method: (§2) To exclude unspecific compound-induced cytotoxicity as the predominant mode of action a lactate dehydrogenase (LDH) assay was performed using the Cytotoxicity Detection Kit^PLUS LDH (Roche Diagnostics GmbH, Mannheim, Germany, Cat. No. 4744934001) as described earlier. In short, HCC cells were seeded in 96-well plates at 8 × 10^3 cells/well (HepG2) and 10 × 10^3 cells/well (HuH-7). Following incubation overnight, the cells were treated with 246TMP-3SF5 and 17-AAG at final concentrations of 1 µM, 5 µM and 10 µM, respectively, for 6 h and 24 h. The formation of the red-brownish formazan dye, which is formed proportionally to the LDH enzyme activity in the sample, was measured at 490/600 nm using the GloMax® Discover Microplate Reader (Promega, Madison, WI, USA). Unspecific cytotoxicity was determined by measuring the percentage of LDH release into the supernatant of treated cells compared to untreated controls. Measurements were performed in triplicate in n = 3 independent experiments and mean percentage changes ± SEM as compared to controls are shown.

Series [7] concerns HepG2. Described as above. The series is classed as cell-based, Human. The following applies: HepG2, 1, 5 and 10 µM, 6 h and 24 h, vs untreated controls. Here is the method:
as §2

A further series relates to Hsp70 in HepG2 cells. Put plainly: Western blot analysis of Hsp70 expression. The following applies: HepG2, 24 h treatment. The series is classed as cell-based, Human. Here is the method:
as §1

A further series deals with Hsp70 in HuH-7 cells. Put plainly: Western blot analysis of Hsp70 expression. The series is classed as cell-based, Human. The following applies: HuH-7, 24 h treatment. Here is the method:
as §1

In series [8] the test system is T. gondii tachyzoites (RH strain). Also noted: method as in PMID 34174635. The settings on record: positive control; cited from earlier work.

Method for L. major amastigotes: (§6) Promastigotes (obtained from a patient in 2016) and amastigotes of L. major were applied for drug testing according to previously published methods [63, 90]. IC50 values were calculated from three independent experiments.
Method for L. major promastigotes: as §6
Method for Vero monkey kidney cells: (§7) Cytotoxicity to Vero cells or murine macrophages was evaluated using the MTT assay according to previously published articles and expressed as IC50 values which were determined from three independent experiments [63, 91].
Method for murine macrophages: as §7

Usually IC50 stands for the concentration needed to halve the response being measured. With `COc1ccccc1C(=O)/C=C/c1c2ccccc2cc2ccccc12` [2MeO-Anth], the concentration for half-maximal inhibition (IC50) with L. major promastigotes (Leishmania major) was 1.8 µM; in the series on HuH-7 [1] it was above 10 µM; in the series with murine macrophages, 48.8 µM; in the series on Vero monkey kidney cells, 22.8 µM; in series [2], 9.8 µM; in the series with HepG2 [3], above 10 µM. Moreover, in the series with L. major amastigotes, the concentration for half-maximal inhibition (IC50) worked out at 33.7 µM. Besides, in the series on L. major promastigotes, the “SI (Promastigotes) selectivity index (macrophages/L. major)” value (“SI (Promastigotes) selectivity index” below) is reported as 26.6. Further, the “SI selectivity index (Vero/T. gondii)” value in series [2] was 2.3. The “SI (Amastigotes) selectivity index (macrophages/L. major)” value (from here on “SI (Amastigotes) selectivity index”) in the series with L. major amastigotes is recorded as 1.5.
Regarding `C=CCNC1=C2C[C@@H](C)C[C@H](OC)[C@H](O)[C@@H](C)/C=C(\C)[C@H](OC(N)=O)[C@@H](OC)/C=C\C=C(/C)C(=O)NC(=CC1=O)C2=O` [17-AAG], the “Colony formation (long-term antiproliferative effect, clonogenicity)” value (“Colony formation” for short) with HepG2 [4] and in the series on HuH-7 [5] was “inhibited colony formation significantly; also recorded: close to no colonies formed” each time. Moreover, the results for the IC50 in the series with HuH-7 [1] and in the series on HepG2 [3] were 0.4 ± 0.4 µM and 1.6 ± 0.5 µM, respectively.
Turning to `COc1ccc(C(=O)/C=C/c2cccc([N+](=O)[O-])c2)c(OC)c1` [24DMP-3NO], the IC50 is 0.86 µM in the series on L. major promastigotes; below 1 µM in the series on L. major promastigotes (Leishmania major); above 10 µM in the series on HuH-7 [1]; 25.2 µM in the series on murine macrophages; 5.4 µM in the series on Vero monkey kidney cells; 2.2 µM in [2]. The IC50 in the series on HepG2 [3] was above 10 µM; in the series with L. major amastigotes, 28.4 µM. Further, the “SI (Promastigotes) selectivity index” value in the series on L. major promastigotes stood at 29.3. For the same compound, the “SI selectivity index (Vero/T. gondii)” value in series [2] was determined as 2.4. Besides, the “SI (Amastigotes) selectivity index” value in the series with L. major amastigotes worked out at 0.89.
Take `COc1ccc(C(=O)/C=C/c2c3ccccc3cc3ccccc23)c(OC)c1` [24DMP-Anth]: the IC50 is 2.2 µM in the series on L. major promastigotes (Leishmania major); above 10 µM in the series on HuH-7 [1]; 48.3 µM in the series on murine macrophages; 22.3 µM with Vero monkey kidney cells; 7.6 µM in [2]; above 10 µM in the series on HepG2 [3]. The compound also registered an IC50 with L. major amastigotes of 28 µM. In addition, the “SI (Promastigotes) selectivity index” value with L. major promastigotes came to 22.3. The “SI selectivity index (Vero/T. gondii)” value in series [2] is recorded as 2.9. The “SI (Amastigotes) selectivity index” value in the series with L. major amastigotes turned out to be 1.7.
Take `COc1cc(OC)c(C(=O)/C=C/c2cccc(S(F)(F)(F)(F)F)c2)c(OC)c1` [246TMP-3SF5, 2′,4′,6′-trimethoxy-3-pentafluorosulfanylchalcone]: the “Hsp90 protein expression level” value in the series with Hsp90 in HuH-7 cells and in the series on Hsp90 in HepG2 cells was “almost no changes” in each case. The “Colony formation” value in the series with HepG2 [4] and in the series on HuH-7 [5] was “dose-dependent decrease in colonies formed; also recorded: close to no colonies formed” in each case. Also, the IC50 in the series on L. major promastigotes (Leishmania major) is 9.2 µM; with HuH-7 [1], 2.2 ± 0.3 µM; in the series on murine macrophages it was 32.1 µM; with Vero monkey kidney cells, 1.2 µM; in series [2], 0.42 µM; with HepG2 [3] it was 1.3 ± 0.2 µM. In the series with L. major amastigotes, this compound showed an IC50 of 20.3 µM. In the series with L. major promastigotes, the “SI (Promastigotes) selectivity index” value is recorded as 3.5. For the same compound, the “LDH release (non-specific toxicity)” value in the series with HuH-7 [6] and in the series on HepG2 [7] was “does not significantly increase LDH release” throughout. The “Hsp70 protein expression level” value in the series with Hsp70 in HepG2 cells and with Hsp70 in HuH-7 cells was “drastically increased” throughout. For the same compound, the “SI selectivity index (Vero/T. gondii)” value in [2] turned out to be 2.8. Besides, the “SI (Amastigotes) selectivity index” value with L. major amastigotes is listed as 1.6.
`COc1cc(OC)c(C(=O)/C=C/c2c3ccccc3cc3ccccc23)c(OC)c1` [246TMP-Anth, 2′,4′,6′-trimethoxy-9-anthracenylchalcone]: the IC50 in the series with L. major promastigotes is 0.73 µM; with L. major promastigotes (Leishmania major), below 1 µM; in the series with HuH-7 [1], above 10 µM; in the series with murine macrophages, 15.8 µM; in the series on Vero monkey kidney cells, 19.6 µM; in series [2] it was 5.8 µM. Besides, the IC50 in the series with HepG2 [3] is above 10 µM; in the series on L. major amastigotes, 18.8 µM. In the series on L. major promastigotes, the “SI (Promastigotes) selectivity index” value turned out to be 21.7. Further, the “SI selectivity index (Vero/T. gondii)” value in series [2] was 3.4. In addition, the “SI (Amastigotes) selectivity index” value with L. major amastigotes is 0.84.
In the case of `O=C1C(O)=C([C@H]2CC[C@H](c3ccc(Cl)cc3)CC2)C(=O)c2ccccc21` [ATO], the IC50 in [8] was 0.07 µM.
Consider `CNC(=O)c1cc(Oc2ccc(NC(=O)Nc3ccc(Cl)c(C(F)(F)F)c3)cc2)ccn1` [Sorafenib, reference compound], for which the “Colony formation” value with HepG2 [4] and in the series on HuH-7 [5] was “colony count did not differ much from the untreated controls” in each case. The figures for the IC50 in the series on HuH-7 [1] and in the series with HepG2 [3] were 5.4 ± 0.6 µM and 4.4 ± 1 µM, respectively.
